Test results taken from patent US4409210A, “Antibiotic compound” (priority 1982, dated 1983).
Converted amounts (≈) assume the structure as drawn.

Key:
[1] = test system: Veillonella alcalescens A21914-1; test: MIC, serial two-fold dilution method (anaerobic); format: cell-based; conditions: Veillonella alcalescens A21914-1, GAM agar medium, inoculum 10^7-10^8; for MIC: Veillonella parvula, A219141, read-out: minimum inhibitory concentration (MIC)
[2] = test system: Propionibacterium acnes A21933; test: MIC, serial two-fold dilution method (anaerobic); format: cell-based; conditions: Propionibacterium acnes A21933, GAM agar medium, inoculum 10^7-10^8; for MIC: Cutibacterium acnes, read-out: minimum inhibitory concentration (MIC)
[3] = test system: Staphylococcus aureus 209P; test: MIC, serial two-fold dilution method (aerobic); format: cell-based; conditions: Staphylococcus aureus 209P, Mueller-Hinton agar, inoculum 10^4; for MIC: read-out: minimum inhibitory concentration (MIC)
[4] = test system: Staphylococcus aureus A9748; test: MIC, serial two-fold dilution method (aerobic); format: cell-based; conditions: Staphylococcus aureus A9748, Mueller-Hinton agar, inoculum 10^4; for MIC: read-out: minimum inhibitory concentration (MIC)
[5] = test system: Staphylococcus aureus A20239; test: MIC, serial two-fold dilution method (aerobic); format: cell-based; conditions: Staphylococcus aureus A20239, Mueller-Hinton agar, inoculum 10^4; for MIC: read-out: minimum inhibitory concentration (MIC)
[6] = test system: Pseudomonas aeruginosa D-113; test: MIC, serial two-fold dilution method (aerobic); format: cell-based; conditions: Pseudomonas aeruginosa D-113, Mueller-Hinton agar, inoculum 10^4; for MIC: D113, read-out: minimum inhibitory concentration (MIC)
[7] = test system: Bacteroides fragilis CUH-24; test: MIC, serial two-fold dilution method (anaerobic); format: cell-based; conditions: Bacteroides fragilis CUH-24, GAM agar medium, inoculum 10^7-10^8; for MIC: CUH24, read-out: minimum inhibitory concentration (MIC)
[8] = test system: Propionibacterium acnes A21953; test: MIC, serial two-fold dilution method (anaerobic); format: cell-based; conditions: Propionibacterium acnes A21953, GAM agar medium, inoculum 10^7-10^8; for MIC: Cutibacterium acnes, read-out: minimum inhibitory concentration (MIC)
[9] = test system: Bacteroides fragilis A21900; test: MIC, serial two-fold dilution method (anaerobic); format: cell-based; conditions: Bacteroides fragilis A21900, GAM agar medium, inoculum 10^7-10^8; for MIC: read-out: minimum inhibitory concentration (MIC)
[10] = test system: Clostridium cylindrosporum A9562; test: MIC, serial two-fold dilution method (anaerobic); format: cell-based; conditions: Clostridium cylindrosporum A9562, GAM agar medium, inoculum 10^7-10^8; for MIC: read-out: minimum inhibitory concentration (MIC)
[11] = test system: Bacteroides fragilis A22695; test: MIC, serial two-fold dilution method (anaerobic); format: cell-based; conditions: Bacteroides fragilis A22695, GAM agar medium, inoculum 10^7-10^8; for MIC: read-out: minimum inhibitory concentration (MIC)
[12] = test system: Bacteroides fragilis A20926; test: MIC, serial two-fold dilution method (anaerobic); format: cell-based; conditions: Bacteroides fragilis A20926, GAM agar medium, inoculum 10^7-10^8; for MIC: read-out: minimum inhibitory concentration (MIC)
[13] = test system: Streptococcus pneumoniae IID-Type-I; test: MIC, serial two-fold dilution method (aerobic); format: cell-based; conditions: Streptococcus pneumoniae IID-Type-I; GC medium; inoculum 10^6 CFU/ml
[14] = test system: Fusobacterium nucleatum A21906; test: MIC, serial two-fold dilution method (anaerobic); format: cell-based; conditions: Fusobacterium nucleatum A21906, GAM agar medium, inoculum 10^7-10^8; for MIC: read-out: minimum inhibitory concentration (MIC)
[15] = test system: Staphylococcus aureus BX-1633; test: MIC, serial two-fold dilution method (aerobic); format: cell-based; conditions: Staphylococcus aureus BX-1633, Mueller-Hinton agar, inoculum 10^4; for MIC: BX1633, read-out: minimum inhibitory concentration (MIC)
[16] = test system: Staphylococcus aureus A9856; test: MIC, serial two-fold dilution method (aerobic); format: cell-based; conditions: Staphylococcus aureus A9856, Mueller-Hinton agar, inoculum 10^4; for MIC: read-out: minimum inhibitory concentration (MIC)
[17] = test system: Bacteroides fragilis CUH-9; test: MIC, serial two-fold dilution method (anaerobic); format: cell-based; conditions: Bacteroides fragilis CUH-9, GAM agar medium, inoculum 10^7-10^8; for MIC: CUH9, read-out: minimum inhibitory concentration (MIC)
[18] = test system: Sarcina lutea PCI-1001; test: MIC, serial two-fold dilution method (aerobic); format: cell-based; conditions: Sarcina lutea PCI-1001, Mueller-Hinton agar, inoculum 10^4; for MIC: Micrococcus luteus, PCI1001, read-out: minimum inhibitory concentration (MIC)
[19] = test system: Fusobacterium varium ATCC 8501; test: MIC, serial two-fold dilution method (anaerobic); format: cell-based; conditions: Fusobacterium varium ATCC 8501, GAM agar medium, inoculum 10^7-10^8; for MIC: ATCC8501, read-out: minimum inhibitory concentration (MIC)
[20] = test system: Bacteroides fragilis A22533; test: MIC, serial two-fold dilution method (anaerobic); format: cell-based; conditions: Bacteroides fragilis A22533, GAM agar medium, inoculum 10^7-10^8; for MIC: read-out: minimum inhibitory concentration (MIC)
[21] = test system: Staphylococcus aureus A22421; test: MIC, serial two-fold dilution method (aerobic); format: cell-based; conditions: Staphylococcus aureus A22421, Mueller-Hinton agar, inoculum 10^4; for MIC: read-out: minimum inhibitory concentration (MIC)
[22] = test system: Clostridium ramosum A21970; test: MIC, serial two-fold dilution method (anaerobic); format: cell-based; conditions: Clostridium ramosum A21970, GAM agar medium, inoculum 10^7-10^8; for MIC: Thomasclavelia ramosa, read-out: minimum inhibitory concentration (MIC)
[23] = test system: Clostridium perfringens A22787; test: microbe, parasite or virus in culture; format: cell-based; conditions: for MIC: Clostridium perfringens, A22787, read-out: minimum inhibitory concentration (MIC)
[24] = test system: Streptococcus pneumoniae A9585; test: MIC, serial two-fold dilution method (aerobic); format: cell-based; conditions: Streptococcus pneumoniae A9585; GC medium; inoculum 10^6 CFU/ml
[25] = test system: Bacillus subtilis ATCC 6633; test: MIC, serial two-fold dilution method (aerobic); format: cell-based; conditions: Bacillus subtilis ATCC 6633, Mueller-Hinton agar, inoculum 10^4; for MIC: ATCC6633, read-out: minimum inhibitory concentration (MIC)
[26] = test system: Haemophilus influenzae A22481; test: MIC, serial two-fold dilution method (aerobic); format: cell-based; conditions: Haemophilus influenzae A22481; GC medium; inoculum 10^6 CFU/ml
[27] = test system: Staphylococcus aureus A20701; test: MIC, serial two-fold dilution method (aerobic); format: cell-based; conditions: Staphylococcus aureus A20701, Mueller-Hinton agar, inoculum 10^4; for MIC: read-out: minimum inhibitory concentration (MIC)
[28] = test system: Strain G393-B445; test: Antibiotic sensitivity, paper disc-agar diffusion method; format: cell-based, Empedobacter sp.; parameters: key: S (sensitive); R (resistant); I (intermediate); conditions: nutrient agar, 2 day's incubation at 28° C., Difco discs, amount/disc per antibiotic

Compound: Amphomycin
- minimum inhibitory concentration (MIC) [1]: 25 µg/mL
- minimum inhibitory concentration (MIC) [2]: 3.1 µg/mL
- minimum inhibitory concentration (MIC) [3]: 3.1 µg/mL
- minimum inhibitory concentration (MIC) [4]: 6.3 µg/mL
- minimum inhibitory concentration (MIC) [5]: 6.3 µg/mL
- minimum inhibitory concentration (MIC) [6]: > 100 µg/mL
- minimum inhibitory concentration (MIC) [7]: > 100 µg/mL
- minimum inhibitory concentration (MIC) [8]: 6.3 µg/mL
- minimum inhibitory concentration (MIC) [9]: 25 µg/mL
- minimum inhibitory concentration (MIC) [10]: 25 µg/mL
- minimum inhibitory concentration (MIC) [11]: > 100 µg/mL
- minimum inhibitory concentration (MIC) [12]: 50 µg/mL
- minimum inhibitory concentration (MIC) [13]: 25 µg/mL
- minimum inhibitory concentration (MIC) [14]: 6.3 µg/mL
- minimum inhibitory concentration (MIC) [15]: 3.1 µg/mL
- minimum inhibitory concentration (MIC) [16]: 3.1 µg/mL
- minimum inhibitory concentration (MIC) [17]: > 100 µg/mL
- minimum inhibitory concentration (MIC) [18]: 0.8 µg/mL
- minimum inhibitory concentration (MIC) [19]: 25 µg/mL
- minimum inhibitory concentration (MIC) [20]: > 100 µg/mL
- minimum inhibitory concentration (MIC) [21]: 3.1 µg/mL
- minimum inhibitory concentration (MIC) [22]: 25 µg/mL
- minimum inhibitory concentration (MIC) ([23]; Clostridium perfringens A22787, GAM agar medium, inoculum 10^7-10^8): 12.5 µg/mL
- minimum inhibitory concentration (MIC) [24]: 25 µg/mL
- minimum inhibitory concentration (MIC) [25]: 1.6 µg/mL
- minimum inhibitory concentration (MIC) [26]: > 100 µg/mL
- minimum inhibitory concentration (MIC) [27]: 6.3 µg/mL

Compound: CC[C@H]1OC(=O)[C@H](C)[C@@H](O[C@H]2C[C@@](C)(OC)[C@@H](O)[C@H](C)O2)[C@H](C)[C@@H](O[C@@H]2O[C@H](C)C[C@H](N(C)C)[C@H]2O)[C@](C)(O)C[C@@H](C)C(=O)[C@H](C)[C@@H](O)[C@]1(C)O [Erythromycin]
- MIC [1]: 0.2 µg/mL (≈ 0.273 µM)
- MIC [2]: 1.6 µg/mL (≈ 2.18 µM)
- MIC [3]: 0.1 µg/mL (≈ 0.136 µM)
- MIC [4]: 0.4 µg/mL (≈ 0.545 µM)
- MIC [5]: 12.5 µg/mL (≈ 17 µM)
- MIC [6]: 100 µg/mL (≈ 136 µM)
- MIC [7]: > 100 µg/mL
- MIC [8]: 0.8 µg/mL (≈ 1.09 µM)
- MIC [9]: 0.4 µg/mL (≈ 0.545 µM)
- MIC [10]: 3.1 µg/mL (≈ 4.22 µM)
- MIC [11]: 3.1 µg/mL (≈ 4.22 µM)
- MIC [12]: < 0.05 µg/mL
- Sensitivity Strain G393-B445 [28]: S
- MIC [14]: 1.6 µg/mL (≈ 2.18 µM)
- MIC [15]: 0.2 µg/mL (≈ 0.273 µM)
- MIC [16]: 0.2 µg/mL (≈ 0.273 µM)
- MIC [17]: 6.3 µg/mL (≈ 8.58 µM)
- MIC [18]: < 0.05 µg/mL
- MIC [19]: 1.6 µg/mL (≈ 2.18 µM)
- MIC [20]: 0.4 µg/mL (≈ 0.545 µM)
- MIC [21]: 6.3 µg/mL (≈ 8.58 µM)
- MIC [22]: 0.1 µg/mL (≈ 0.136 µM)
- MIC [23]: > 100 µg/mL
- MIC [25]: < 0.05 µg/mL
- MIC [27]: > 100 µg/mL

Compound: O=C(N[C@H](CO)[C@H](O)c1ccc([N+](=O)[O-])cc1)C(Cl)Cl [Chloramphenicol]
- MIC [1]: 1.6 µg/mL (≈ 4.95 µM)
- MIC [2]: 3.1 µg/mL (≈ 9.59 µM)
- MIC [3]: 3.1 µg/mL (≈ 9.59 µM)
- MIC [4]: 6.3 µg/mL (≈ 19.5 µM)
- MIC [5]: 6.3 µg/mL (≈ 19.5 µM)
- MIC [6]: > 100 µg/mL
- MIC [7]: 1.6 µg/mL (≈ 4.95 µM)
- MIC [8]: 1.6 µg/mL (≈ 4.95 µM)
- MIC [9]: 3.1 µg/mL (≈ 9.59 µM)
- MIC [10]: 6.3 µg/mL (≈ 19.5 µM)
- MIC [11]: 3.1 µg/mL (≈ 9.59 µM)
- MIC [12]: 3.1 µg/mL (≈ 9.59 µM)
- Sensitivity Strain G393-B445 [28]: S
- MIC [14]: 6.3 µg/mL (≈ 19.5 µM)
- MIC [15]: 6.3 µg/mL (≈ 19.5 µM)
- MIC [16]: 3.1 µg/mL (≈ 9.59 µM)
- MIC [17]: 1.6 µg/mL (≈ 4.95 µM)
- MIC [18]: 1.6 µg/mL (≈ 4.95 µM)
- MIC [19]: 6.3 µg/mL (≈ 19.5 µM)
- MIC [20]: 3.1 µg/mL (≈ 9.59 µM)
- MIC [21]: 6.3 µg/mL (≈ 19.5 µM)
- MIC [22]: 6.3 µg/mL (≈ 19.5 µM)
- MIC [23]: 6.3 µg/mL (≈ 19.5 µM)
- MIC [25]: 3.1 µg/mL (≈ 9.59 µM)
- MIC [27]: 50 µg/mL (≈ 155 µM)
